Assay results published in ChEMBL document CHEMBL1201862, “PubChem BioAssay data set” (2004).
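Test compounds were applied to cells in 96-well plates for 48 hours at 5 doses. GI50 = concentration required for 50% inhibition of growth.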 The source made the active and inactive calls. No stated cut-off is given here; in the data, active = GI50 up to about 1.1 µM and inactive = higher.

Columns and labels:
Test in all cases: inhibition of tumour cell growth, NCI panel, 48 h
Hs-578T = tested on: Hs-578T
MOLT-4 = tested on: MOLT-4
MDA-N = tested on: MDA-N
HCT-15 = tested on: HCT-15
SK-MEL-28 = tested on: SK-MEL-28
SN12C = tested on: SN12C
K562 = tested on: K562
SR = tested on: SR
CCRF-CEM = tested on: CCRF-CEM
IGROV-1 = tested on: IGROV-1
ACHN = tested on: ACHN
COLO 205 = tested on: COLO 205
RPMI-8226 = tested on: RPMI-8226
SF-295 = tested on: SF-295
NCI/ADR-RES = tested on: NCI/ADR-RES
NCI-H23 = tested on: NCI-H23
HOP-92 = tested on: HOP-92
SK-MEL-5 = tested on: SK-MEL-5
SF-539 = tested on: SF-539
SK-MEL-2 = tested on: SK-MEL-2

| Structure (SMILES) | GI50 (Hs-578T) | GI50 (MOLT-4) | GI50 (MDA-N) | GI50 (HCT-15) [µM] | GI50 (SK-MEL-28) | GI50 (SN12C) | GI50 (K562) | GI50 (SR) | GI50 (CCRF-CEM) | GI50 (IGROV-1) | GI50 (ACHN) | GI50 (COLO 205) | GI50 (RPMI-8226) | GI50 (SF-295) | GI50 (NCI/ADR-RES) | GI50 (NCI-H23) | GI50 (HOP-92) | GI50 (SK-MEL-5) | GI50 (SF-539) | GI50 (SK-MEL-2) |
| --- | --- | --- | --- | --- | --- | --- | --- | --- | --- | --- | --- | --- | --- | --- | --- | --- | --- | --- | --- | --- |
| C[C@]12CC[C@H](O)C[C@@H]1CC[C@@H]1[C@@H]2CC[C@]2(C)[C@@H](C3=CC(=O)OC3)CC[C@]12O | 4.21 µM (inactive) | 0.359 µM (active) | 2.02 µM (inactive) | 1.86 | 7.5 µM (inactive) | 0.964 µM (active) | 3.97 µM (inactive) | > 100 µM (inactive) | 0.76 µM (active) | 3.26 µM (inactive) | 0.687 µM (active) | 3.18 µM (inactive) | 4.21 µM (inactive) | 2.73 µM (inactive) | 2.07 µM (inactive) | 1.87 µM (inactive) | 5.42 µM (inactive) | 1.15 µM (inactive) | 1.29 µM (inactive) | 3.33 µM (inactive) |
| O=C1C(Cl)=CC2(C=C1Cl)CCNC1=C2C(=O)c2nc[nH]c2C1=O | > 100 µM (inactive) | 26.9 µM (inactive) | 18.5 µM (inactive) | 46 | 33.7 µM (inactive) | 36.5 µM (inactive) | 29.4 µM (inactive) | 2.12 µM (inactive) | 30.8 µM (inactive) | 47.1 µM (inactive) | > 100 µM (inactive) | 22.9 µM (inactive) | 30.5 µM (inactive) | > 100 µM (inactive) | > 100 µM (inactive) | 27.2 µM (inactive) | 42.4 µM (inactive) | 16.6 µM (inactive) | 33.5 µM (inactive) | 17.3 µM (inactive) |
| COC(=O)C(C)(/N=C/c1ccccc1)c1ccccc1 (stereo not given) | > 100 µM (inactive) | > 100 µM (inactive) | > 100 µM (inactive) | > 100 | > 100 µM (inactive) | > 100 µM (inactive) | > 100 µM (inactive) | > 100 µM (inactive) | > 100 µM (inactive) | > 100 µM (inactive) | > 100 µM (inactive) | > 100 µM (inactive) | > 100 µM (inactive) | > 100 µM (inactive) | > 100 µM (inactive) | > 100 µM (inactive) | > 100 µM (inactive) | > 100 µM (inactive) | > 100 µM (inactive) | > 100 µM (inactive) |
| CC1CN=C(Nc2ccc(F)cc2F)S1 (stereo not given) | > 100 µM (inactive) | > 100 µM (inactive) | > 100 µM (inactive) | > 100 | > 100 µM (inactive) | > 100 µM (inactive) | > 100 µM (inactive) | > 100 µM (inactive) | > 100 µM (inactive) | > 100 µM (inactive) | > 100 µM (inactive) | > 100 µM (inactive) | > 100 µM (inactive) | > 100 µM (inactive) | > 100 µM (inactive) | > 100 µM (inactive) | 15.6 µM (inactive) | > 100 µM (inactive) | > 100 µM (inactive) | > 100 µM (inactive) |
| CSc1ccc2c(cc1=O)[C@@H](NC(=O)c1ccc([N+](=O)[O-])cc1)CCc1cc(O)c(O)c(O)c1-2 | 21.2 µM (inactive) | 30.6 µM (inactive) | 22.4 µM (inactive) | 30.4 | > 100 µM (inactive) | 21.6 µM (inactive) | 18.4 µM (inactive) | 3.99 µM (inactive) | 4.58 µM (inactive) | 35.4 µM (inactive) | 29.7 µM (inactive) | 24.7 µM (inactive) | 40.3 µM (inactive) | 32.8 µM (inactive) | 17.4 µM (inactive) | 45.3 µM (inactive) | > 100 µM (inactive) | 18.7 µM (inactive) | 28.8 µM (inactive) | > 100 µM (inactive) |
